Experimental data from patent US6528675B1, “Cyanohydrin ethers and esters as high-sensitivity enzyme substrates” (The Regents of the University of California, priority 2001, dated 2003).

How the values were obtained:
[1] = Rate of conversion of cyanohydrin to aldehyde as a function of pH; format: physicochemical; conditions: pH 8.0 or greater, tris-maleate 0.1 M, 25° C.
Protocol: This example illustrates the rate of conversion of a cyanohydrin formed in the practice of this invention to its corresponding aldehyde. The cyanohydrin used in this example is hydroxy-(6-methoxynaphthalen-2-yl) acetonitrile, which is the cyanohydrin formed by the action of an esterase on the substrate of Example 1.
The rate of cyanohydrin-to-aldehyde conversion was determined as a function of pH at constant ionic strength (0.1 M) and temperature (25° C.), using a series of tris-maleate buffers with different pH values ranging from 6.0 to 9.0 at intervals of 0.5. Conversion was initiated by the addition of 3 μL of 10 mM of cyanohydrin, and the formation of 6-methoxy-2-naphthaldehyde, measured in pmol cyanohydrin converted per second per mL, was detected by fluorescence excitation at 330 nm and emission at 460 nm over a time period of 20 minutes. […] The rate of aldehyde conversion increases rapidly at pH 8.0 or greater with maximum fluorescence achieved in less than 20 seconds.

[2] = system: homogenate of Heliothis virescens, pyrethroid-susceptible strain; assay: Specific activity of esterase against substrates; format: biochemical; conditions: H. virescens (susceptible), pH 8.0, 10 μM substrate, fluorescence 330/460 nm
Protocol: (§1) The esterases were porcine esterase purchased from Sigma Chemical Company, St. Louis, Mo., USA, esterase from a rat liver microsomal preparation from 8-week-old Fisher 344 rats, and homogenates of Heliothis virescens from both pyrethroid-susceptible and -resistant strains of tobacco budworm. The substrate in each case was added to a tris-maleate buffer (pH 8.0, 0.1 m) to a final substrate concentration of 10 μM, followed by the addition of the enzyme preparation. The samples were then immediately read by fluorometer at 460 nm for one minute (excitation at 330 nm). The results are listed in Table VI, where “Compound I” denotes the Example 1 substrate, and “Compound II” denotes the Example 4 substrate.

porcine esterase [3] = assay: Specific activity of esterase against substrates; format: biochemical; conditions: pH 8.0, 10 μM substrate, fluorescence 330/460 nm
Protocol: as §1

[4] = system: homogenate of Heliothis virescens, pyrethroid-resistant strain; assay: Specific activity of esterase against substrates; format: biochemical; conditions: H. virescens (resistant), pH 8.0, 10 μM substrate, fluorescence 330/460 nm
Protocol: as §1

[5] = Substrate stability in buffer, fluorescence detection; format: physicochemical; conditions: 5 min, 10 μM
Protocol: (§2) The same two invention substrates and two prior art substrates were tested for stability by both UV detection and fluorescence detection under typical assay conditions.
(§3) Tris maleate buffers (0.1 M) at pH ranging from 6.0 to 9.0 in intervals of 1.0 were used, and substrate was added to 10 μM final concentration. […] The fluorescence samples were read with excitation at 360 nm and emission at 460 nm (for pH 6.0), 465 nm (for pH 7.0), 485 nm (pH 8.0), and 510 nm (pH 9.0) for the methylumbelyl acetate, and with excitation at 330 nm and emission at 460 nm for the two test compounds, in all cases, the readings over 5-minute periods.

[6] = Change in optical properties, UV absorption of esters and hydrolysis products; format: physicochemical; conditions: for ε (molar absorptivity): in M-1 cm-1 (unit assumed)
Description: The substrates representing the invention were (R/S)-acetic acid cyano-(6-methoxynaphthalen-2-yl)-methyl ester (the title compound of Synthesis Example 1 above) and (trans/cis)-3-(2,2-dichlorovinyl)-2,2-dimethylcyclopropanecarboxylic acid cyano-(6-methoxynaphthalen-2-yl)-methyl ester (the title compound of Synthesis Example 2 above).

porcine esterase [7] = assay: Sensitivity of substrate to enzyme strength; format: biochemical; conditions: pH 8.0, 10 μM substrate, 1 unit=1 μmol/min/mL
Protocol: This example illustrates the sensitivity of the substrate to the enzyme, and compares a substrate in accordance with the present invention to two prior art substrates. […] The enzyme was porcine esterase.
A tris-maleate buffer at pH 8.0 (0.1 M) was used. The procedure consisted of adding substrate to a test tube containing 3 mL of buffer to a final substrate concentration of 10 μM, then adding porcine esterase at strengths of 0.06, 0.09. 0.12, 0.18, 0.30, 0.60, 0.9 and 1.2 unit, in which 1 unit=1 μmol/min/mL. […] The enzyme sensitivities for each substrate and detection method were defined as the minimal amount of enzyme per mL required to produce a signal from the substrate that was at least three times greater than the background noise.

[8] = system: esterase from a rat liver microsomal preparation; assay: Specific activity of esterase against substrates; format: biochemical, Fisher 344 rats; conditions: Rat liver microsome, pH 8.0, 10 μM substrate, fluorescence 330/460 nm
Protocol: as §1

[9] = Substrate stability in buffer, UV detection; format: physicochemical; conditions: 5 min, 10 μM
Protocol: as §2, §3

[10] = Change in optical properties, fluorescence of esters and hydrolysis products; format: physicochemical
Description: The substrates representing the invention were (R/S)-acetic acid cyano-(6-methoxynaphthalen-2-yl)-methyl ester (the title compound of Synthesis Example 1 above) and (trans/cis)-3-(2,2-dichlorovinyl)-2,2-dimethylcyclopropanecarboxylic acid cyano-(6-methoxynaphthalen-2-yl)-methyl ester (the title compound of Synthesis Example 2 above). The substrates of the prior art were methylumbelyl acetate (for detection by fluorescence emission) and 2-naphthacetate (for detection by UV absorption) in assay solutions with different pH values. These prior art substrates were selected because both are widely used and both have aromatic systems similar to the two test compounds.
Again using tris-maleate at pH levels of 6.5, 7.5, and 8.5, fluorescence studies were performed at concentrations of 10 μM, and fluorescence of the starting esters and the hydrolysis products (hydroxycoumarin in the case of methylumbelyl acetate and 6-methoxy-naphthaldehyde in the case of the Example 1 substrate) were determined by conventional instrumentation. The results are listed in Table III in which “MUA” denotes methylumbelyl acetate, “Compound I” denotes the Example 1 substrate, “Ex” denotes the optimal excitation wavelength in nm, “Emmax” denotes the maximal emission wavelength in nm, and “RFU” denotes the relative fluorescence units multiplied by 1,000.

## COc1ccc2cc(C(O)C#N)ccc2c1 (centres unmarked) [cyanohydrin, hydroxy-(6-methoxynaphthalen-2-yl) acetonitrile]
[1]
  time to maximum fluorescence (cyanohydrin-to-aldehyde conversion): less than 20 seconds

## COc1ccc2cc(C(C#N)OC(C)=O)ccc2c1 (racemic) [Compound I, (R/S)-Acetic Acid Cyano-(6-methoxy-naphthalen-2-yl) Methyl Ester]
[2]
  Specific Activity: 9,700 ± 220 pmol/min/mg protein
Porcine esterase [3]
  Specific Activity: 2,911,000 ± 1,780 pmol/min/mg protein
[4]
  Specific Activity: 25,100 ± 425 pmol/min/mg protein
other
  melting point: 84 to 85 °C
[5]; pH 6
  Substrate stability, Fluorescence: <1 pmol/min
[5]; pH 7
  Substrate stability, Fluorescence: 8 pmol/min
[5]; pH 8
  Substrate stability, Fluorescence: 59 pmol/min
[5]; pH 9
  Substrate stability, Fluorescence: 138 pmol/min
[6]; tris-maleate pH 6.5, 10 μM
  OD (optical density): 0.086
  λmax: 287 nm
  ε (molar absorptivity): 3,000
[6]; tris-maleate pH 7.5, 10 μM
  OD (optical density): 0.137
  λmax: 287 nm
  ε (molar absorptivity): 3,420
[6]; tris-maleate pH 8.5, 10 μM
  OD (optical density): 0.142
  λmax: 287 nm
  ε (molar absorptivity): 3,550
Porcine esterase [7]; Fluorescence detection
  Sensitivity (minimal amount of enzyme per mL giving a signal at least three times background noise): 0.00002
Porcine esterase [7]; UV detection
  Sensitivity (minimal amount of enzyme per mL giving a signal at least three times background noise): 0.001
[8]
  Specific Activity: 39,800 ± 600 pmol/min/mg protein
[9]; pH 6
  Substrate stability, UV Absorption: <0.01 mAbs/min
[9]; pH 7
  Substrate stability, UV Absorption: <0.01 mAbs/min
[9]; pH 8
  Substrate stability, UV Absorption: <0.01 mAbs/min
[9]; pH 9
  Substrate stability, UV Absorption: 0.103 mAbs/min
[10]; over the three pH levels tested (6.5, 7.5, 8.5)
  emission peak: 366 nm
[10]; tris-maleate pH 6.5, 10 μM
  Emmax (maximal emission wavelength): 410 nm
  Ex (optimal excitation wavelength): 360 nm
  RFU (relative fluorescence units multiplied by 1,000): 241 RFU
[10]; tris-maleate pH 7.5, 10 μM
  Emmax (maximal emission wavelength): 450 nm
  Ex (optimal excitation wavelength): 360 nm
  RFU (relative fluorescence units multiplied by 1,000): 581 RFU
[10]; tris-maleate pH 8.5, 10 μM
  Emmax (maximal emission wavelength): 450 nm
  Ex (optimal excitation wavelength): 360 nm
  RFU (relative fluorescence units multiplied by 1,000): 3,708 RFU
